These results are taken from patent US9365633B2, “Peptide preparations and peptides with antitumour activity” (Instytut Medycyny Doswiadczalnej I Klinicznej Pan, priority 2010, dated 2016).

The assay concerns melanoma cells of the line MeW 155. Briefly: Effect of synthetic peptides on proliferation of melanoma cells, 3 day culture in 96-well plate. It counts as cell-based. Particulars: 3 days of culture; for cell numbers, % of the control: 4000 cells per well; for toxicity to MeW 155 melanoma cells: MeW 155, 0.1 mM. The procedure:
The synthetic peptides were examined for their effect on the proliferation of melanoma cells of the line MeW 155. The culture was maintained under standard conditions for 3 days with 4000 cells per well of a 96-well culture plate. After three days, the numbers of cells in the control group increased to 120 000. It turned out that after 3 days of culture, peptide 91 at a concentration of 0.004 mM decreased cell numbers to 55% of the control, and a 0.02 mM concentration decreased the cells to 35%, whereas 0.1 mM was toxic to MeW 155 cells. Peptide 92 at 0.004 mM decreased the number of tumour cells to 65% of the control, a 0.02 mMol concentration decreased the number of cells to 49%, and a concentration of 0.1 mM was toxic to melanoma cells.

With YRPWGSGSGF [compound 92], the “toxicity to MeW 155 melanoma cells” value is given as “toxic”. In addition, the “cell numbers, % of the control” value (MeW 155, 0.004 mM) came out at 65%. Besides, where the note is “MeW 155, 0.02 mM”, the “cell numbers, % of the control” value was 49%.

For YRPWGSGSGFG [peptide 91], the “toxicity to MeW 155 melanoma cells” value is reported as “toxic”. Under “MeW 155, 0.004 mM”, the “cell numbers, % of the control” value stood at 55%. For the same sequence, for the setting “MeW 155, 0.02 mM”, the “cell numbers, % of the control” value stood at 35%.
